Data reported in paper PMC6573034 (Nature Communications, 2019).

Tests used:
SfMCT [1] = target: T1, SfMCT (Syntrophobacter fumaroxidans, UniProt A0LNN5); test: Uptake of [14C]L-lactate and other radiolabeled monocarboxylates into SfMCT expressing E. coli JA202; type: cell-based; conditions: for Net uptake of [14C]L-lactate through SfMCT (cpm): SfMCT minus vector
T1 construct: expressed in transfected cells; host or cells: E. coli JA202 (MC4100 glcA::cat lldP::kan), plasmid pEXT20-SfMCT-3C-10His
T1 sequence (A0LNN5 1-412): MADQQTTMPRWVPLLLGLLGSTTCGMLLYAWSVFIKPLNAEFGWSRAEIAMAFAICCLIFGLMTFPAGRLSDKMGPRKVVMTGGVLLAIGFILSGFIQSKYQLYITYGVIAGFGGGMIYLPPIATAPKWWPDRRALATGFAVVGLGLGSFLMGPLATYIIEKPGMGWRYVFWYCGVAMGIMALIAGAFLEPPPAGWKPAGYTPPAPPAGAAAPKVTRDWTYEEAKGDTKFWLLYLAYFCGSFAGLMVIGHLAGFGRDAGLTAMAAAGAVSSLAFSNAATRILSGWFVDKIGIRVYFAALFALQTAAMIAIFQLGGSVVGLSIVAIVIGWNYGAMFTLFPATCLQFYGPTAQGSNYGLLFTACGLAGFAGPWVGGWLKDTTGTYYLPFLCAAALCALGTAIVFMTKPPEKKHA

SfMCT R256D = target: T2, SfMCT R256D (Syntrophobacter fumaroxidans, UniProt A0LNN5, R256D); test: [14C]L-lactate in vivo uptake assay, mutant R256D; type: cell-based; conditions: R256D versus WT
T2 construct: expressed in transfected cells; host or cells: E. coli JA202 (MC4100 glcA::cat lldP::kan), plasmid pEXT20-SfMCT-3C-10His
Description: The cultures were grown at 37 °C and 180 r.p.m. in an incubator shaker (Multitron, Infors HT). Protein expression was induced at OD600 ~0.5 by addition of IPTG to a final concentration of 0.25 mM. After 4 h, bacteria were pelleted (5,200 × g, 10 min, room temperature) and resuspended in uptake buffer (20 mM Bis-Tris propane-HCl (pH 6.7), 250 mM KCl) to a bacteria density of OD600 12. […] Furthermore, [3-3 H] propionic acid sodium salt ([^3H]propionate, American Radiolabeled Chemicals, specific activity 30 Ci/mmol), n-[2,3-3 H] butyric acid sodium salt ([^3H]butyrate, American Radiolabeled Chemicals, specific activity 120 Ci/mmol), and [1–14 C] pyruvic acid sodium salt ([^14C]pyruvate, specific activity 0.055 Ci/mmol American Radiolabeled Chemicals) were also used for transport experiments. […] Cpm values of each experiment were normalized with respect to the determined upper plateau value, i.e., the fitted upper plateau value corresponds to 100%. The arithmetic average of three independent experiments was calculated. […] His-tagged transporters were detected using an anti-His5 (Qiagen, catalogue number 34660, primary antibody) at a dilution of 1:3,000 and a goat anti-mouse IgG (H + L) HRP conjugate antibody (Biorad, catalogue number 172-1011, secondary antibody) at a dilution of 1:2,500.

SfMCT [2] = target: T1, SfMCT; type: cell-based; conditions: competitor 1 mM
Description: The cultures were grown at 37 °C and 180 r.p.m. in an incubator shaker (Multitron, Infors HT). Protein expression was induced at OD600 ~0.5 by addition of IPTG to a final concentration of 0.25 mM. After 4 h, bacteria were pelleted (5,200 × g, 10 min, room temperature) and resuspended in uptake buffer (20 mM Bis-Tris propane-HCl (pH 6.7), 250 mM KCl) to a bacteria density of OD600 12. […] Furthermore, [3-3 H] propionic acid sodium salt ([^3H]propionate, American Radiolabeled Chemicals, specific activity 30 Ci/mmol), n-[2,3-3 H] butyric acid sodium salt ([^3H]butyrate, American Radiolabeled Chemicals, specific activity 120 Ci/mmol), and [1–14 C] pyruvic acid sodium salt ([^14C]pyruvate, specific activity 0.055 Ci/mmol American Radiolabeled Chemicals) were also used for transport experiments. […] Uptake experiments were performed in 2 ml reaction tubes (Eppendorf) at 30 °C under agitation (1,000 r.p.m., Thermomixer compact, Eppendorf). […] Bacteria were immediately pelleted by centrifugation (21,000 × g, 4 min, room temperature) and washed two times with 900 μl stop buffer. Finally, bacteria were lyzed in 50 μl 5% (w/v) sodium dodecylsulfate and transferred into a white 96-well plate (Optiplate, PerkinElmer). 150 µl of scintillation cocktail (MicroScint 40, PerkinElmer) were added before measuring each reaction for 2 min with a scintillation counter (TopCount NXT, PerkinElmer). For data analysis, the signal of the empty vector was subtracted from the transporter signal. […] Cpm values of each experiment were normalized with respect to the determined upper plateau value, i.e., the fitted upper plateau value corresponds to 100%. The arithmetic average of three independent experiments was calculated. Three independent and normalized pH-dependence curves were then averaged. For data analysis Prism6 (GraphPad Software) was used. […] Equal amounts of bacteria expressing SfMCT variants were loaded on 14% SDS/polyacrylamide gels. His-tagged transporters were detected using an anti-His5 (Qiagen, catalogue number 34660, primary antibody) at a dilution of 1:3,000 and a goat anti-mouse IgG (H + L) HRP conjugate antibody (Biorad, catalogue number 172-1011, secondary antibody) at a dilution of 1:2,500.

MCT3 (SLC16A8) = conditions: MCT3, L-lactate; cited from earlier work

T2 sequence (A0LNN5 whole entry R256D): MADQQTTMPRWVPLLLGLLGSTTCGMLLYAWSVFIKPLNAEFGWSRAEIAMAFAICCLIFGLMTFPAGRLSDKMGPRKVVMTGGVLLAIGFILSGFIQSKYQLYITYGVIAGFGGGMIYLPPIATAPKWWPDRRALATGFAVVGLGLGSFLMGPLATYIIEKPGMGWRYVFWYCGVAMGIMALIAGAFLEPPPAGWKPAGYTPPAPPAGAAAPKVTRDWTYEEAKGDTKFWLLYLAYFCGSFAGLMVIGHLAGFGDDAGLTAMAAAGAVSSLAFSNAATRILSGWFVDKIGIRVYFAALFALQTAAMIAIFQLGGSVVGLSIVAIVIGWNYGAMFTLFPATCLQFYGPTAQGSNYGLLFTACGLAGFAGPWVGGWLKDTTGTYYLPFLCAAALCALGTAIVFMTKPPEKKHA

SMILES: C[C@H](O)C(=O)O [L-lactate]
- Uptake of [14C]L-lactate by SfMCT (cpm) (SfMCT [1]; Time 5 min): 1353.33 cpm
- Net uptake of [14C]L-lactate through SfMCT (cpm) (SfMCT [1]; Time 5 min): 969 cpm
- Uptake of [14C]L-lactate by SfMCT (cpm) (SfMCT [1]; Time 10 min): 2978.67 cpm
- Net uptake of [14C]L-lactate through SfMCT (cpm) (SfMCT [1]; Time 10 min): 2373.33 cpm
- Uptake of [14C]L-lactate by SfMCT (cpm) (SfMCT [1]; Time 20 min): 6015 cpm
- Net uptake of [14C]L-lactate through SfMCT (cpm) (SfMCT [1]; Time 20 min): 4812 cpm
- Uptake of [14C]L-lactate by SfMCT (cpm) (SfMCT [1]; Time 40 min): 11074.3 cpm
- Net uptake of [14C]L-lactate through SfMCT (cpm) (SfMCT [1]; Time 40 min): 8600.33 cpm
- Uptake of [14C]L-lactate by SfMCT (cpm) (SfMCT [1]; Time 50 min): 12325 cpm
- Net uptake of [14C]L-lactate through SfMCT (cpm) (SfMCT [1]; Time 50 min): 9196.33 cpm
- Uptake of [14C]L-lactate by SfMCT (cpm) (SfMCT [1]; Time 60 min): 13920.3 cpm
- Net uptake of [14C]L-lactate through SfMCT (cpm) (SfMCT [1]; Time 60 min): 9981.67 cpm
- Uptake of [14C]L-lactate by SfMCT (cpm) (SfMCT [1]; Time 75 min): 16014.3 cpm
- Net uptake of [14C]L-lactate through SfMCT (cpm) (SfMCT [1]; Time 75 min): 10856.3 cpm
- Uptake of [14C]L-lactate by SfMCT (cpm) (SfMCT [1]; Time 90 min): 17840 cpm
- Net uptake of [14C]L-lactate through SfMCT (cpm) (SfMCT [1]; Time 90 min): 10528.3 cpm
- Uptake of [14C]L-lactate (SfMCT [1]; [L-lactate] 10 µM): 8.303 pmol
- Uptake of [14C]L-lactate (SfMCT [1]; [L-lactate] 50 µM): 59.1431 pmol
- Uptake of [14C]L-lactate (SfMCT [1]; [L-lactate] 100 µM): 109.881 pmol
- Uptake of [14C]L-lactate (SfMCT [1]; [L-lactate] 175 µM): 163.284 pmol
- Uptake of [14C]L-lactate (SfMCT [1]; [L-lactate] 250 µM): 201.312 pmol
- Uptake of [14C]L-lactate (SfMCT [1]; [L-lactate] 625 µM): 266.195 pmol
- increase of [14C]L-lactate transport (SfMCT R256D): ~ 2.5 fold
- competition with [14C]L-lactate uptake (in words) (SfMCT [2]): strongest competition
- Km (MCT3 (SLC16A8)): ~6 mM
